Like-named read-outs stand apart in the source and are kept apart here. Marks after values point to notes of the source that are not given here.
Legend:
[1] = tested on: human gastric cancer cells-803 (MGC-803); test: MTT antiproliferative assay, MGC-803; assay type: cell-based; settings: Homo sapiens, MGC-803, MTT, read-out: Effect against cell viability (IC50), MGC-803
[2] = tested on: large cell lung cancer cells (NCI-H460); test: MTT antiproliferative assay, NCI-H460; assay type: cell-based, human; settings: Homo sapiens, read-out: Effect against cell viability (IC50), NCI-H460
[3] = tested on: human foreskin fibroblasts (HFF); test: MTT antiproliferative assay, HFF; assay type: cell-based; settings: Homo sapiens, Fibroblast, read-out: Effect against cell viability (IC50), HFF
[4] = tested on: hepatocellular carcinoma bel-7404 (BEL-7404); test: MTT antiproliferative assay, BEL-7404; assay type: cell-based, human; settings: Homo sapiens, read-out: Effect against cell viability (IC50), BEL-7404
T24 cells = test: Apoptosis by Annexin V-FITC/PI flow cytometry, T24; assay type: cell-based, human; settings: T24, at IC50 concentration (4h 8.05 μM; 6h 8.93 μM); control 1.18%
Description: The apoptosis ratios of MGC80-3 or T24 cell lines induced by the selected compounds at the concentration of IC50 and 0.5 IC50 were quantitatively determined by flow cytometry. Four quadrant images (Q1, Q2, Q3 and Q4) were observed by flow cytometric analysis. The results of apoptosis ratios (including the early and late apoptosis ratios) after 12 h are presented in Figure 6 (MGC80-3) and Figure 7 (T24). […] After treatment with compound 6h, 5.62% (3.43 μM) and 14.25% (6.85 μM) of the cells were apoptotic. These were higher percentages than the one observed in the control (0.586%). […] The results evidently illustrate that representative compounds 5d and 6h or 4h and 6h could suppress cell proliferation by inducing apoptosis in the early apoptotic period.
The apoptosis assay and the cell cycle analysis were carried out by cytometry (FACSVerse, BD, Piscataway, NJ, USA) at an excitation wavelength of 488 nm according to the method described in the literature with slight modifications. The cells were seeded at 2 × 10^6/well and washed by cold PBS. The buffer solutions were prepared using 0.1 M pH 7.4 Hepes/NaOH, 1.4 M NaCl, and 25 mM CaCl2.

zebrafish embryos = zebrafish embryos 72 hpf

## COc1ccc(-c2nnc(N=C3c4ccccc4NC4C=CC(C)=CC34)s2)cc1 (centres unmarked) [6h, 7-methyl-N-(5-(4-methoxyphenyl)-1,3,4-thiadiazol-2-yl)-10,10a-dihydroacridin-9(8aH)-imine]
[1]
  IC50: 6.85 ± 0.84 µM
[2]
  IC50: 13.3 ± 1.39 µM
[3]
  IC50: 33.9 ± 1.28 µM
[4]
  IC50: 20.2 ± 1.59 µM
T24 cells
  apoptosis ratio: 10.749%
Zebrafish embryos; 1 mg/mL
  MAR (malformation rate): 35% ^b
  MOR (mortality rate): 0%
Zebrafish embryos; 1.5 mg/mL
  MAR (malformation rate): 80% ^b
  MOR (mortality rate): 0%
Zebrafish embryos; 2 mg/mL
  MAR (malformation rate): 65% ^b
  MOR (mortality rate): 15% ^b

Reference: article PMC9820444, “Design and Synthesis of Acridine-Triazole and Acridine-Thiadiazole Derivatives and Their Inhibitory Effect against Cancer Cells” (International Journal of Molecular Sciences, 2022)
